Patent US6642379B1, “Benzamide derivatives, insecticides for agricultural and horticultural use and usage thereof” (Nihon Nohyaku Co., Ltd., priority 1999, dated 2003)

System: Diamond Back Moth (Plutella xylostella)
Assay: Insecticidal effect on diamond back moth (Test Example 1)
Assay type: in vivo
Settings: 144 h, Chinese cabbage seedling with eggs immersed about 30 seconds, 25° C., hatched insects counted six days after immersion, read-out: insecticidal effect (mortality) activity ranking
Description: Insecticidal Effect on Diamond Back Moth (Plutella xylostella)
Adult diamond back moths were released and allowed to oviposit on a Chinese cabbage seedling. Two days after the release, the seedling having the eggs deposited thereon was immersed for about 30 seconds in a liquid chemical prepared by diluting a preparation containing each compound listed in Tables 1 to 4 as an active ingredient to adjust the concentration to 500 ppm. After air-dryness, it was allowed to stand in a room thermostatted at 25° C. Six days after the immersion, the hatched insects were counted. The mortality was calculated according to the following equation and the insecticidal effect was judged according to the criterion shown below. The test was carried out with triplicate groups of 10 insects. [formula]

Cc1cc(OC(F)(F)F)ccc1NC(=O)c1cccc(Cl)c1-c1coc(C(C)(C)C)n1 [4-1, 2-(2-t-butyloxazol-4-yl)-3-chloro-2′-methyl-4′-trifluoromethoxybenzanilide]
mortality at 500 ppm: 100%
